Laboratory results published in publication PMC6546852, “Carbonyl Reduction of Flubendazole in the Human Liver: Strict Stereospecificity, Sex Difference, Low Risk of Drug Interactions” (Frontiers in Pharmacology, 2019).

What was measured:
[1] = molecular target: T1, carbonyl reductase 1 (CBR1) (Homo sapiens, UniProt P16152); experiment: Inhibition of flubendazole reduction in pooled human liver cytosol by CBR1 inhibitors; type: biochemical; conditions: 10 µM FLU, NADPH, inhibitor 0-50 µM
T1 sequence (P16152 2-277 limits assumed): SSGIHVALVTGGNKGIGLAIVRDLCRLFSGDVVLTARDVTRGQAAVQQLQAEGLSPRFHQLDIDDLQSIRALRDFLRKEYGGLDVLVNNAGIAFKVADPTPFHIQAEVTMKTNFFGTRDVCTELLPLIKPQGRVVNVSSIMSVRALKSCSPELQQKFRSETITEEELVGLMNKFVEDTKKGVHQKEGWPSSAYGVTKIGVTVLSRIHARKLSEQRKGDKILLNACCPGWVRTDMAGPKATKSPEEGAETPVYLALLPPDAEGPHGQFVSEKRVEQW

[2] = Reduction of flubendazole in pooled human liver cytosol (chiral HPLC of FLUR enantiomers); type: in vitro ADME; conditions: human liver subcellular fractions
Protocol: Frozen pieces of liver were thawed at room temperature for up to 15 min and individual livers were homogenized in a 0.1 M sodium phosphate buffer, pH 7.4 at the ratio of 1:6 (v/v), using a Potter-Elvehjem homogenizer and sonication with Sonopolus (Bandelin, Germany). The suspension of the SW480 cells was homogenized using sonication only. The subcellular fractions were isolated by differential centrifugation of the homogenates (Gillette, [1971]) and stored at −80°C. Protein concentrations were assayed using the bicinchoninic acid (BCA) assay according to the manufacturer’s instructions (Sigma-Aldrich).
The cytosolic or microsomal fraction was incubated with FLU (10 μM). […]
Details concerning the HPLC analyses including validations were described in Nobilis et al. ([2008]). A chiral HPLC analysis was employed for the determination of reduced FLU (FLUR) enantiomers—(+)-FLUR and (−)-FLUR; concentrations of FLU, (+)-FLUR, and (−)-FLUR in the samples were determined using an internal standard method (I.S., albendazole). […] A tandem of an UV photodiode-array and a fluorescence detector was used for the determination of the abovementioned benzimidazole compounds.

[3] = Water solubility of flubendazole; type: physicochemical; conditions: allowed only 10 µM as highest concentration in incubation mixtures
[4] = tested on: doxorubicin reduction in pooled human liver cytosol; experiment: Flubendazole effect on doxorubicin reduction (doxorubicinol formation) in pooled human liver cytosol; type: biochemical; conditions: for Doxorubicinol—cytosol (percent of the residual activity): 20 µM doxorubicin, NADPH
P-glycoprotein = tested on: P-glycoprotein; set-up: method as in earlier work; conditions: ref Spagnuolo et al., 2010, Kralova et al., 2013, Michaelis et al., 2015, 2016; cited from earlier work
[5] = tested on: doxorubicin reduction in cytosol of cancer cells SW480; experiment: Flubendazole effect on doxorubicin reduction (doxorubicinol formation) in cytosol of cancer cells SW480; type: biochemical, human; conditions: for Doxorubicinol—SW480 (percent of the residual activity): 20 µM doxorubicin, NADPH
human recombinant CBR1 = molecular target: T2, human recombinant CBR1 (Homo sapiens, UniProt P16152); experiment: Specific activity of human recombinant CBR1 toward substrates (NADPH consumption at 340 nm); type: biochemical; conditions: 10 µM substrate
T2 construct: purchased MyBioSource (San Diego, CA, USA)
T2 sequence (P16152 1-277): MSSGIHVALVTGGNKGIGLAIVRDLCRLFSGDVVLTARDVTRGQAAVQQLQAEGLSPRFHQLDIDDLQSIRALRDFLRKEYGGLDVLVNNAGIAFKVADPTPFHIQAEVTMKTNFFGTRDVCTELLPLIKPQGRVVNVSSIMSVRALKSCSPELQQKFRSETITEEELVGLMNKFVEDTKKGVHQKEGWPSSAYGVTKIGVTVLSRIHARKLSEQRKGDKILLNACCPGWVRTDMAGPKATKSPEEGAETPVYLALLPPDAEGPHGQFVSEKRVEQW
Protocol: The human recombinant CBR1 activity was assayed using a slight modification of previously published method (Mate et al., [2008]). The assay was performed in four replicates and was repeated three times. […] The activity of CBR1 was assessed using 10-μM concentration of the substrates, MEN, DOX, and FLU. The consumption of NADPH in the reaction mixture, which served for the assessment of the reductase activity, was determined spectrophotometrically at 340 nm at 37°C using the microplate reader Tecan Infinite M200.

[6] = Kinetics of flubendazole reduction ((+)-FLUR formation) in pooled human liver cytosol; type: in vitro ADME; conditions: for Clint (intrinsic clearance, V′max/K′m) / K’m (apparent Michaelis constant) / V’max (apparent maximal velocity of (+)-FLUR formation): pooled cytosol; for V’max (apparent maximal velocity of (+)-FLUR formation): 0-10 µM FLU

SMILES: O=c1cc(-c2ccc(O)c(O)c2)oc2cc(O)cc(O)c12 [LUT, luteolin]
- IC50 [1]: 8.21 ± 3.71 µM

SMILES: COC(=O)Nc1nc2cc(C(=O)c3ccc(F)cc3)ccc2[nH]1 [flubendazole, [5-(4-fluorobenzoyl)-1H-benzimidazol-2-yl]-carbamic acid methyl ester]
- Stereospecificity of carbonyl reduction (in words) [2]: strictly stereospecific
- Water solubility (in words) [3]: poor
- Doxorubicinol—cytosol (percent of the residual activity) ([4]; 2 µM flubendazole): 98.0 ± 3.4%
- Doxorubicinol—cytosol (percent of the residual activity) ([4]; 10 µM flubendazole): 91.4 ± 4.9%
- Inhibition of DOX reduction (in words) ([4]; human liver cytosol, FLU 2 and 10 µM): did not inhibit
- P-glycoprotein substrate (in words) (P-glycoprotein): not a substrate for P-glycoprotein
- Doxorubicinol—SW480 (percent of the residual activity) ([5]; 2 µM flubendazole): 97.6 ± 3.4%
- Doxorubicinol—SW480 (percent of the residual activity) ([5]; 10 µM flubendazole): 96.7 ± 2.7%
- Inhibition of DOX reduction (in words) ([5]; SW480 cytosol, FLU 2 and 10 µM): did not inhibit
- Specific activity of human recombinant CBR1 toward the substrate (in words) (human recombinant CBR1): significantly lower than to MEN
- Clint (intrinsic clearance, V′max/K′m) ([6]; NADH coenzyme): 0.000012 min⁻¹
- K’m (apparent Michaelis constant) ([6]; NADH coenzyme): 13.34 ± 3.07 µM
- V’max (apparent maximal velocity of (+)-FLUR formation) ([6]; NADH coenzyme): 0.161 ± 0.024 nM/min
- Clint (intrinsic clearance, V′max/K′m) ([6]; NADPH coenzyme): 0.000023 min⁻¹
- K’m (apparent Michaelis constant) ([6]; NADPH coenzyme): 19.91 ± 2.49 µM
- V’max (apparent maximal velocity of (+)-FLUR formation) ([6]; NADPH coenzyme): 0.466 ± 0.043 nM/min
- Hepatic intrinsic clearance (in words) ([6]; pooled human liver cytosol): very low

SMILES: CC1=CC(=O)c2ccccc2C1=O [MEN, menadione]
- Specific activity of human recombinant CBR1 toward the substrate (in words) (human recombinant CBR1): highest
- IC50 [1]: 0.34 ± 0.26 µM
